According to patent US9302012B2, “Anti-bacterial siderophore-aminopenicillin conjugates” (University of Notre Dame Du Lac, priority 2012, dated 2016):
Like-named read-outs stand apart in the source and are kept apart here.

Key:
[1] = test system: P. aeruginosa Pa4; experiment: Agar diffusion antibacterial susceptibility assay; type: cell-based, Pseudomonas aeruginosa; parameters: key to Diameter of growth inhibition zones: partially clear inhibition zone/colonies in the inhibition zone; P: unclear inhibition zone/many colonies in the inhibition zone; indicates only a hint of growth inhibition detectable; conditions: 37° C.; for zone of inhibition at 200 µM / zone of inhibition at 100 µM: Pseudomonas aeruginosa, PA4, 24 h, read-out: Diameter of growth inhibition zones; for zone of inhibition at 200 µM / Diameter of growth inhibition zones: 50 μL of 0.2 mM solution; for zone of inhibition at 100 µM: 50 μL of 0.1 mM solution; for Diameter of growth inhibition zones: 24 hours
Description: (§1) All liquids and media were sterilized by autoclaving (121° C., 15 min) before use. All aqueous solutions and media were prepared using distilled, deionized, and filtered water (Millipore Milli-Q Advantage A10 Water Purification System). Luria broth (LB) was purchased from VWR. Mueller-Hinton No. 2 broth (MHII broth; cation adjusted) was purchased from Sigma-Aldrich (St. Louis, Mo.). Iron-deficient (—Fe) MHII broth was prepared by adding 0.8 mL of a 1 mg/mL sterile aq. solution of 2,2′-bipyridine to 49.2 mL of MHII broth. Iron-rich (+Fe) MHII broth was prepared by adding 0.8 mL of a 1 mg/mL sterile aq. solution of FeCl3 to 49.2 mL of MHII broth. Mueller-Hinton No. 2 agar (MHII agar; HiMedia Laboratories) was purchased from VWR. Iron-deficient (−Fe) MHII agar was prepared by adding 0.5 mL of a 1 mg/mL sterile aq. solution of 2,2′-bipyridine to 34 mL of melted MHII agar with gentle mixing. Iron-rich (+Fe) MHII agar was prepared by adding 0.5 mL of a 1 mg/mL sterile aq. solution of FeCl3 to 34 mL of melted MHII agar with gentle mixing. See also Wencewicz, T. A. Dissertation, University of Notre Dame, Notre Dame, Ind., 2011, for relevant techniques.
(§2) Antibacterial Susceptibility Testing by the Agar Diffusion Assay.
(§3) Antibacterial activity of the compounds was determined by a modified Kirby-Bauer agar diffusion assay. Overnight cultures of test organisms were grown in LB broth for 18-24 h and standard suspensions of […] were prepared in saline solution (0.9% NaCl) according to a 0.5 BaSO4 McFarland Standard. This standardized suspension (0.1 mL) was added to 34 mL of sterile, melted agar (−Fe or +Fe) tempered to 47-50° C. After gentle mixing, the inoculated agar media was poured into a sterile plastic petri dish (145 mm×20 mm) and allowed to solidify near a flame with the lid ajar for about 30 min. Wells of 9.0 mm diameter were cut from the petri dish agar and filled with exactly 50 μL of the test sample solution. The petri dish was incubated at 37° C. for 18-24 h and the inhibition zone diameters were measured (mm) with an electronic caliper after 24 h.

[2] = test system: E. coli H1443 (fepA+, cir+, fiu+); experiment: Agar diffusion antibacterial susceptibility assay; type: cell-based; conditions: Escherichia coli, 24 h, 37° C., read-out: Diameter of growth inhibition zones; for zone of inhibition at 200 µM: 50 μL of 0.2 mM solution; for zone of inhibition at 100 µM: 50 μL of 0.1 mM solution
Description: as §1, §2, §3

[3] = test system: P. aeruginosa PAO1; experiment: Agar diffusion antibacterial susceptibility assay; type: cell-based; conditions: Pseudomonas aeruginosa, PAO1, 24 h, 37° C., read-out: Diameter of growth inhibition zones; for zone of inhibition at 200 µM: 50 μL of 0.2 mM solution; for zone of inhibition at 100 µM: 50 μL of 0.1 mM solution
Description: as §1, §2, §3

[4] = test system: collection of strains of P. aeruginosa; experiment: Agar well diffusion test (several strains); type: cell-based, Pseudomonas aeruginosa; conditions: KW799/wt, PAO1, Pa4, and Pa6; Table 1
Description: Conjugates 10 and 11 were first evaluated for their antibacterial ability against a collection of strains of P. aeruginosa using the agar well diffusion test. The influence of iron concentration on antibacterial activity was probed as well by conducting assays in iron-rich and iron-deficient media.
as §1, §2, §3

Compound: CC(=O)Oc1cccc(C(=O)NCCCC(CCCNC(=O)c2cccc(OC(C)=O)c2OC(C)=O)(CCCNC(=O)c2cccc(OC(C)=O)c2OC(C)=O)NC(=O)CCC(=O)NC(C(=O)NC2C(=O)N3C2SC(C)(C)C3C(=O)O)c2ccc(O)cc2)c1OC(C)=O (stereo not shown) [Compound 11]
- zone of inhibition at 200 µM ([1]; +Fe agar): 0 mm
- zone of inhibition at 200 µM ([1]; −Fe agar): 20 mm
- zone of inhibition at 200 µM ([2]; +Fe agar): 0 mm
- zone of inhibition at 200 µM ([2]; −Fe agar): 21 mm
- zone of inhibition at 200 µM ([3]; +Fe agar): 0 mm
- zone of inhibition at 200 µM ([3]; −Fe agar): 19 mm

Compound: CC(=O)Oc1cccc(C(=O)NCCCC(CCCNC(=O)c2cccc(OC(C)=O)c2OC(C)=O)(CCCNC(=O)c2cccc(OC(C)=O)c2OC(C)=O)NC(=O)CCC(=O)NC(C(=O)NC2C(=O)N3C2SC(C)(C)C3C(=O)O)c2ccccc2)c1OC(C)=O (stereo not shown) [Compound 10]
- zone of inhibition at 100 µM ([1]; +Fe agar): 0 mm
- zone of inhibition at 100 µM ([1]; −Fe agar): 18 mm
- zone of inhibition at 100 µM ([2]; +Fe agar): 0 mm
- zone of inhibition at 100 µM ([2]; −Fe agar): 19 mm
- zone of inhibition at 100 µM ([3]; +Fe agar): 0 mm
- zone of inhibition at 100 µM ([3]; −Fe agar): 16 mm

Compound: CC1(C)S[C@@H]2[C@H](NC(=O)[C@H](N)c3ccc(O)cc3)C(=O)N2[C@H]1C(=O)O [Amoxicillin, reference compound]
- zone of inhibition at 200 µM ([1]; +Fe agar): 0 mm
- Diameter of growth inhibition zones ([1]; −Fe agar): h
- zone of inhibition at 200 µM ([3]; +Fe agar): 0 mm
- zone of inhibition at 200 µM ([3]; −Fe agar): 0 mm
- activity against wild type strains of P. aeruginosa (agar diffusion, in words) [4]: inactive or only weakly active

Compound: CC1(C)S[C@@H]2[C@H](NC(=O)[C@H](N)c3ccccc3)C(=O)N2[C@H]1C(=O)O [Ampicillin, reference compound]
- zone of inhibition at 200 µM ([1]; +Fe agar): 0 mm
- Diameter of growth inhibition zones ([1]; −Fe agar): h
- zone of inhibition at 200 µM ([3]; +Fe agar): 0 mm
- zone of inhibition at 200 µM ([3]; −Fe agar): 0 mm
- activity against wild type strains of P. aeruginosa (agar diffusion, in words) [4]: inactive or only weakly active
